Results from paper PMC12257394, “Design, Synthesis, and Biological Evaluation of Ferrocenyl–Cyclo-(Gly‑L‑Pro) Hybrids Sensitizing Multidrug-Resistant Cancer Cells to Anticancer Agents” (ACS Medicinal Chemistry Letters, 2025).
“Also recorded” adds a separate entry of the source.

Key:
ABCB1 = biological target: T1, ABCB1 (Homo sapiens, UniProt P08183); assay: UIC-2 antibody-binding assay in SW620V cells; assay type: cell-based; conditions: 1 μM compound, n = 3
T1 construct: ABCB1-overexpressing SW620V cells; endogenous in cells; host or cells: SW620V (vincristine-resistant variant of SW620, developed in the authors' laboratory by drug selection)
T1 sequence (P08183 whole entry): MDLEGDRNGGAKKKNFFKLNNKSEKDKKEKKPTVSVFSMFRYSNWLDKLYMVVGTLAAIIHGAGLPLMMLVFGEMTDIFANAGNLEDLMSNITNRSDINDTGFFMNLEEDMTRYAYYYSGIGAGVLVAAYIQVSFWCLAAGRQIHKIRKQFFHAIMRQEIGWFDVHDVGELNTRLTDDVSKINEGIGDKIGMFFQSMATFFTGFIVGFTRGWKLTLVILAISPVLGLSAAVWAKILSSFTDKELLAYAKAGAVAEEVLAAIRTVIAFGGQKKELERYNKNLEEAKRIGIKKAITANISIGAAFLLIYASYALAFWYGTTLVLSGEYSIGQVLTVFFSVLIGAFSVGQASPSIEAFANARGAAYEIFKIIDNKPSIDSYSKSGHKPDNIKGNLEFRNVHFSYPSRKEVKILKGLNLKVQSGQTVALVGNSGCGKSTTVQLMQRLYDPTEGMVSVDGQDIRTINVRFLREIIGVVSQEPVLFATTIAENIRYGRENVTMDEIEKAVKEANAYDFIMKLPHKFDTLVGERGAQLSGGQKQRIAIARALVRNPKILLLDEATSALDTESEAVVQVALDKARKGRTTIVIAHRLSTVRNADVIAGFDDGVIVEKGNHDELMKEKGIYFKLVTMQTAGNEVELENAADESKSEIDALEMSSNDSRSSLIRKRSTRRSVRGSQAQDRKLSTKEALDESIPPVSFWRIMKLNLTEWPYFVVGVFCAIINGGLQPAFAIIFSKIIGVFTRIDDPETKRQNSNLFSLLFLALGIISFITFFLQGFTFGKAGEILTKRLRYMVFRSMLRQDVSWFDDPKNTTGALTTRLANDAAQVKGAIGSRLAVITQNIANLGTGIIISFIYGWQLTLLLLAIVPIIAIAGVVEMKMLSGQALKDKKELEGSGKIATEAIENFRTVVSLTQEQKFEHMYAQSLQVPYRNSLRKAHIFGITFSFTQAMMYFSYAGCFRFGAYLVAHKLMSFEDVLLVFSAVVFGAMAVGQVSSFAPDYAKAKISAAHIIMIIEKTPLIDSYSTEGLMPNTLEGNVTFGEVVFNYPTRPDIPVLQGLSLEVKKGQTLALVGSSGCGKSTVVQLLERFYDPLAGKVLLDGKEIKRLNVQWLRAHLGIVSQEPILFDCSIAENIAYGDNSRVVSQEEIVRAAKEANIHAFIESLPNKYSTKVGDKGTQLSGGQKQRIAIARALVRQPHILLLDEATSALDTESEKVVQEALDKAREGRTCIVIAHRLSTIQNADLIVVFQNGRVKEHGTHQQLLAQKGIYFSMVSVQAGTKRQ
Excerpt: (§1) To obtain deeper insight into the direct interactions between the investigated inhibitors and transporter protein molecules, we used two commercially available antibodies, UIC-2 and 5D3, which recognize the active forms of ABCB1 and ABCG2, respectively. These antibodies specifically recognize epitopes that are exposed when the transporter interacts with the allocrite.
(§2) A total of 106 parental SW620 cells expressing low level of ABC proteins or their multidrug - resistant variant SW620V cells (overexpressing ABCB1) or SW620Mito cells (overexpressing ABCG2) were suspended in 1 mL of complete culture medium supplemented with solvent (DMSO), a positive control (vincristine/mitoxantrone), or an investigated compound at a final concentration of 1 µM. APC-conjugated UIC2 anti-ABCB1/FITC-conjugated 5D3 anti-ABCG2 antibody or the respective isotype control was then added to a final concentration of 5 µg/mL, and the samples were incubated at 37°C for 60 min. Then, the cells were washed three times (100 × g for 10 min) with fresh medium and analyzed using a FACSymphony A1 (Becton, Dickinson and Company, New Jersey, USA) instrument. Results were expressed as a difference of median of fluorescence of a given sample (specific binding of antibody) and the respec tive isotype control (unspecific binding). […]
(§3) All experiments were performed at least three times, and the data were statistically analyzed

ABCG2 = biological target: T2, ABCG2 (Homo sapiens, UniProt Q9UNQ0); assay: 5D3 antibody-binding assay in SW620Mito cells; assay type: cell-based; conditions: 1 μM compound, n = 3
T2 construct: ABCG2-overexpressing SW620C and SW620Mito; endogenous in cells; host or cells: SW620Mito (mitoxantrone-resistant variant of SW620, developed in the authors' laboratory by drug selection)
T2 sequence (Q9UNQ0 1-655): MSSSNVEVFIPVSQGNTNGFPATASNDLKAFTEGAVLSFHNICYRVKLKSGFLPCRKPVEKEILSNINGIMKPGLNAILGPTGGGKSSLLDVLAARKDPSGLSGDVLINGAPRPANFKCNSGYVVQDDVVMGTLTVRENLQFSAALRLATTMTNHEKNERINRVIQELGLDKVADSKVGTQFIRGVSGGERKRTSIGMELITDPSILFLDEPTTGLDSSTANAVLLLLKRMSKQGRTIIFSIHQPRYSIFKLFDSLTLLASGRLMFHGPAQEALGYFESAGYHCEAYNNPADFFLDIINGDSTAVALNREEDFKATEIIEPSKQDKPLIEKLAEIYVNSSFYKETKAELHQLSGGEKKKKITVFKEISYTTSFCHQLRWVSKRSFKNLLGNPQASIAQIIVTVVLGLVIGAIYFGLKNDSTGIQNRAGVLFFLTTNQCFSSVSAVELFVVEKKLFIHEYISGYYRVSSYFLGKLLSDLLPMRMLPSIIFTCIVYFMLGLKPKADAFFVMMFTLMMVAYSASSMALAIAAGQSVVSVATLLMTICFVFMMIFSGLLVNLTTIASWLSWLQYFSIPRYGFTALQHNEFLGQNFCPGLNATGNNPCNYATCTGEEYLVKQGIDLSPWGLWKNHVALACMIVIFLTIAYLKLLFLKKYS
Excerpt: as §1, §2, §3

SW620M cells = assay: Synergy determination (Bliss model, SynergyFinder), SW620M; assay type: cell-based, human; conditions: drug methotrexate + additive; for synergy score: Bliss model
Excerpt: (§4) In an ideal setting, the effect of cell exposure to a combination of a chemotherapeutic and an MDR inhibitor should be synergistic. […] The highest synergy scores identified an optimal concentration range where the combination exerted its maximal effect. […] In cisplatin-resistant SW620C cells, the low or lack of synergy observed for most compounds may be due to the additive effects of cisplatin and 4 rather than a true synergistic interaction. […]
(§5) To evaluate the potential interactions between putative ABC inhibitors and anticancer drugs, we utilized the Bliss independence model, as implemented in the SynergyFinder web application.13, 14 Synergy scores and the most synergistic area scores were calculated based on the normalized dose–response matrices. A synergy score below −10 indicates likely […]
(§6) above 10 is indicative of likely synergistic interactions.
as §3

SW620D cells = assay: Synergy determination (Bliss model, SynergyFinder), SW620D; assay type: cell-based, human; conditions: drug doxorubicin + additive; for synergy score: Bliss model
Excerpt: as §4, §5, §6, §3

SW620V cells = assay: Synergy determination (Bliss model, SynergyFinder), SW620V; assay type: cell-based, human; conditions: drug vincristine + additive; for synergy score: Bliss model
Excerpt: as §4, §5, §6, §3

[1] = Neutral red uptake viability assay, SW620M; assay type: cell-based, human; conditions: human, SW620M cells (methotrexate-resistant), 72 h, n = 3, read-out: Cytotoxic activity IC50 (95% CI)

| Structure (SMILES) | UIC-2 antibody binding to ABCB1 (ABCB1) | 5D3 antibody binding to ABCG2 (ABCG2) | most synergistic area score (SW620M cells) | synergy score (SW620M cells) | most synergistic area score (SW620D cells) | synergy score (SW620D cells) | most synergistic area score (SW620V cells) | synergy score (SW620V cells) | IC50 at 72 h [1] |
| --- | --- | --- | --- | --- | --- | --- | --- | --- | --- |
| O=C1N/C(=C\[c-]2cccc2)C(=O)N2CCC[C@@H]12.[Fe+2].c1cc[cH-]c1 [(S,Z)-4a] | binding patterns expected for ABCB1 allocrites | recognized as ABCG2 allocrites | 3.56 | –3.78 | 20.51 | 6.30 | 15.88 | 4.27 |  |
| O=C1N/C(=C/c2ccccc2)C(=O)N2CCC[C@@H]12 [(S,E)-4e] |  |  |  |  | 0.00 | –6.63 |  |  | > 100 µM |
| O=C1N/C(=C/c2cccc(-[c-]3cccc3)c2)C(=O)N2CCC[C@@H]12.[Fe+2].c1cc[cH-]c1 [(S,E)-4c] | no detectable interaction | no detectable interaction | 0.00 | –2.83 | 1.68 | –3.01 |  |  |  |
| O=C1N/C(=C\c2ccccc2-[c-]2cccc2)C(=O)N2CCC[C@@H]12.[Fe+2].c1cc[cH-]c1 [(S,Z)-4b] | binding patterns expected for ABCB1 allocrites; also recorded: enhance UIC-2 antibody binding | recognized as ABCG2 allocrites | 1.57 | –5.03 | 11.62 | 3.96 | 27.24 | 7.15 |  |
| O=C1N/C(=C\c2ccccc2)C(=O)N2CCC[C@@H]12 [(S,Z)-4e] |  |  |  |  | 0.00 | –8.70 |  |  | > 100 µM |
| O=C1N/C(=C\c2ccc(-[c-]3cccc3)cc2)C(=O)N2CCC[C@@H]12.[Fe+2].c1cc[cH-]c1 [(S,Z)-4d] | binding patterns expected for ABCB1 allocrites; also recorded: enhance UIC-2 antibody binding | recognized as ABCG2 allocrites | 0.00 | –5.20 | 17.81 | 7.37 | 24.93 | 13.6 |  |
